This assay addresses T1, RPMI 8866 cells (Homo sapiens, UniProt P13612+P26010).
T1 sequence (P13612 34-1032): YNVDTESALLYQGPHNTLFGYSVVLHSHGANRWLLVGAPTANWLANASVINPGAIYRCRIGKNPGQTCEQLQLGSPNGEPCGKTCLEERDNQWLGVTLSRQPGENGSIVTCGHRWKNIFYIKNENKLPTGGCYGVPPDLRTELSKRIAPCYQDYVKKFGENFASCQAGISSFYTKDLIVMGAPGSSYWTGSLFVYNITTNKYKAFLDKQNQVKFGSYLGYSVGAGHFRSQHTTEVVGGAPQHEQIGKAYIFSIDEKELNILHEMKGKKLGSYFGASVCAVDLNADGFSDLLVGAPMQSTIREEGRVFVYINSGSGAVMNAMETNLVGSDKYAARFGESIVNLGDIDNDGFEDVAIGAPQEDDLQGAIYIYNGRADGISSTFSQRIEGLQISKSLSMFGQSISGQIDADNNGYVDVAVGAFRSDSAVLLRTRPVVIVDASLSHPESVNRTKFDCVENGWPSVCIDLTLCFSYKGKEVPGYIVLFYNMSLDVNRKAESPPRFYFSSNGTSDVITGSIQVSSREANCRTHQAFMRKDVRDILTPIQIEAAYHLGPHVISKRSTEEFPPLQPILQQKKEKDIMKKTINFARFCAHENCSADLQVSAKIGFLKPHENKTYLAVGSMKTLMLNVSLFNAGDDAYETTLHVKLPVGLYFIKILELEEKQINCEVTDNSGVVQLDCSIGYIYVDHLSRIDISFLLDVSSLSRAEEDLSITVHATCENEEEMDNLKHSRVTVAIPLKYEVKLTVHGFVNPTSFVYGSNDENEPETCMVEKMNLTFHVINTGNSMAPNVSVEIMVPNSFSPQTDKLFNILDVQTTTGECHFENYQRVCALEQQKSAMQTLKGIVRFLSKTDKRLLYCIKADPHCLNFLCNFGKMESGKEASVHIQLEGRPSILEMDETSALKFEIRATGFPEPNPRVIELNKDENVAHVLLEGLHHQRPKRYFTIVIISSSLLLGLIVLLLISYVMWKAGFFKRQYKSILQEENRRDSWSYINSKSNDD
T1 sequence (P26010 20-798): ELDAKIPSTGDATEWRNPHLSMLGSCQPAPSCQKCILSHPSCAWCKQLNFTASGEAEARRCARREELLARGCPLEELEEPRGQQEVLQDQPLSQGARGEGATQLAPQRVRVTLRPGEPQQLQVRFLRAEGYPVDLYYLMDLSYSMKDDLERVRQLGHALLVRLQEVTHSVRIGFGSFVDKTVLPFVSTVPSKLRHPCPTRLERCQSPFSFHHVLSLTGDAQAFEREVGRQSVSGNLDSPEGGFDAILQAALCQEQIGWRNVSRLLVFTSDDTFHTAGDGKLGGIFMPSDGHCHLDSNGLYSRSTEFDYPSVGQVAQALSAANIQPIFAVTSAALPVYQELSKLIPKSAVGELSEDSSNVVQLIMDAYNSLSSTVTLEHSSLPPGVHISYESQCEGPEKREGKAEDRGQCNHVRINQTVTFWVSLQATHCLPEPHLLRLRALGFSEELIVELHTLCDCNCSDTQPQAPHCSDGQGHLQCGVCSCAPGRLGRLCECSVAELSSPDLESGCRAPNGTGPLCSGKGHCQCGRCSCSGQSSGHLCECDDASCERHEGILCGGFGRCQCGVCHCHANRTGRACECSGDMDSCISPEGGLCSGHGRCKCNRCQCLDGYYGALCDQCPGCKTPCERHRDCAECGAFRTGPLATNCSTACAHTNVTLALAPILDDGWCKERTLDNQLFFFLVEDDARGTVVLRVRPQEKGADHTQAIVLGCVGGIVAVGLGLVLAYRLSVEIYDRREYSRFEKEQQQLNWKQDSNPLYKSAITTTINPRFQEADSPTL
Description: α4β7-MAdCAM Cell Adhesion Assay. The assay is classed as cell-based. The conditions noted are these: thioether peptide dimers, Table 7; read-out: Cell-Adhesion A4B7. As for the experimental part: α4β7-MAdCAM Cell Adhesion Assay
RPMI 8866 cells (Sigma #95041316) were cultured in RPMI 1640 HEPES medium (Invitrogen #22400-089) supplemented with 10% serum (Fetal Bovine Serum, Invitrogen #16140-071), 1 mM sodium pyruvate (Invitrogen #11360-070), 2 mM L-glutamine (Invitrogen #25030-081) and Penicillin-Streptomycin (Invitrogen #15140-122) at 100 units of penicillin and 100 μg of streptomycin per ml. The cells were washed two times in DMEM medium (ATCC #30-2002) supplemented with 0.1% BSA, 10 mM HEPES pH 7 and 1 mM MnCl2. The cells were re-suspended in supplemented DMEM medium at a density of 4×10^6 cells/ml.
A Nunc MaxiSorp plate was coated with rh MAdCAM-1/Fc Chimera (R&D #6065-MC) at 200 ng per well in 50 ul per well in 1×PBS and incubated at 4° C. overnight. The solution was then removed by shaking, blocked with 250 ul per well PBS containing 1% BSA, and incubated at 37° C. for 1 hr. The solution was removed by shaking. Peptides were diluted by serial dilution in a final volume of 50 ul per well (2× concentration). To each well, 50 ul of cells (200,000 cells) were added and the plate was incubated at 37° C., 5% CO2 for 30-45 min to allow cell adhesion. The wells were washed manually three times (100 ul per wash) with supplemented DMEM. After the final wash, 100 μl/well of supplemented DMEM and 10 ul/well of MTT reagent (ATTC cat #30-1010K) were added. The plate was incubated at 37° C., 5% CO2 for 2-3 hrs until a purple precipitate is visible. 100 ul of Detergent Reagent (ATTC cat #30-1010K) was added to each well. The plate was covered from the light, wrapped in Parafilm to prevent evaporation, and left overnight at room temperature in the dark. The plate was shaken for 5 min and the absorbance at 570 nm is measured. To calculate the dose response, the absorbance value of control wells not containing cells was subtracted from each test well.

Where a SMILES comes first, the peptide text is derived from it.

On to `CC(C)C[C@@H]1NC(=O)[C@H]([C@@H](C)O)NC(=O)[C@H](CCC(=O)O)NC(=O)[C@H](CO)NC(=O)[C@H](CCCNC(=N)N)N(C)C(=O)c2ccccc2CSC(C)(C)[C@@H](C(=O)N[C@@H](Cc2ccccc2)C(=O)N[C@H](CCC(=O)O)C(=O)N[C@H](CCCCN)C(N)=O)NC1=O` [compound 189] (HELM PEPTIDE1{[meR].S.E.T.L.[Pen].F.[dE].[dK].[am]}|CHEM1{[O=C(c1ccccc1C[*:2])[*:1]]}$PEPTIDE1,CHEM1,1:R1-1:R1|PEPTIDE1,CHEM1,6:R3-1:R2$$$V2.0), for which the IC50 was over 1000 nM. Regarding `CC(C)C[C@@H]1NC(=O)[C@H]([C@@H](C)O)NC(=O)[C@H](CC(=O)O)NC(=O)[C@H](CO)NC(=O)[C@H](CCCNC(=N)N)N(C)C(=O)c2ccccc2CSC(C)(C)[C@@H](C(=O)N[C@@H](Cc2c[nH]c3ccccc23)C(=O)N[C@H](CCC(=O)O)C(=O)N[C@@H](CC(C)C)C(=O)N[C@H](CCCCN)C(N)=O)NC1=O` [compound 190] (HELM PEPTIDE1{[meR].S.D.T.L.[Pen].W.[dE].L.[dK].[am]}|CHEM1{[O=C(c1ccccc1C[*:2])[*:1]]}$PEPTIDE1,CHEM1,1:R1-1:R1|PEPTIDE1,CHEM1,6:R3-1:R2$$$V2.0), the IC50 was under 25 nM. As to `CC(C)C[C@@H]1NC(=O)[C@H]([C@@H](C)O)NC(=O)[C@H](CC(=O)O)NC(=O)[C@H](CO)NC(=O)[C@H](CCCNC(=N)N)N(C)C(=O)c2ccccc2CSC(C)(C)[C@@H](C(=O)N[C@@H](Cc2c[nH]c3ccccc23)C(=O)N[C@H](CCC(=O)O)C(=O)N[C@@H](Cc2ccccc2)C(=O)N[C@H](CCCCN)C(N)=O)NC1=O` [compound 192] (HELM PEPTIDE1{[meR].S.D.T.L.[Pen].W.[dE].F.[dK].[am]}|CHEM1{[O=C(c1ccccc1C[*:2])[*:1]]}$PEPTIDE1,CHEM1,1:R1-1:R1|PEPTIDE1,CHEM1,6:R3-1:R2$$$V2.0), the IC50 was under 25 nM.

On to `CC(C)C[C@@H]1NC(=O)[C@H]([C@@H](C)O)NC(=O)[C@H](CC(=O)O)NC(=O)[C@H](CO)NC(=O)[C@H](CCCNC(=N)N)N(C)C(=O)c2ccccc2CSC(C)(C)[C@@H](C(=O)N[C@@H](Cc2c[nH]c3ccccc23)C(=O)N[C@H](CCC(=O)O)C(=O)N[C@@H](Cc2c[nH]cn2)C(=O)N[C@H](CCCCN)C(N)=O)NC1=O` [compound 193] (HELM PEPTIDE1{[meR].S.D.T.L.[Pen].W.[dE].H.[dK].[am]}|CHEM1{[O=C(c1ccccc1C[*:2])[*:1]]}$PEPTIDE1,CHEM1,1:R1-1:R1|PEPTIDE1,CHEM1,6:R3-1:R2$$$V2.0), for which the IC50 was under 25 nM. In the case of `CC(C)C[C@@H]1NC(=O)[C@H]([C@@H](C)O)NC(=O)[C@H](CC(=O)O)NC(=O)[C@H](CO)NC(=O)[C@H](CCCNC(=N)N)N(C)C(=O)c2ccccc2CSC(C)(C)[C@@H](C(=O)N[C@@H](Cc2c[nH]c3ccccc23)C(=O)N[C@H](CCC(=O)O)C(=O)N[C@@H](Cc2ccc(O)cc2)C(=O)N[C@H](CCCCN)C(N)=O)NC1=O` [compound 195] (HELM PEPTIDE1{[meR].S.D.T.L.[Pen].W.[dE].Y.[dK].[am]}|CHEM1{[O=C(c1ccccc1C[*:2])[*:1]]}$PEPTIDE1,CHEM1,1:R1-1:R1|PEPTIDE1,CHEM1,6:R3-1:R2$$$V2.0), the IC50 was under 25 nM. Consider `CC(C)C[C@@H]1NC(=O)[C@H]([C@@H](C)O)NC(=O)[C@H](CC(=O)O)NC(=O)[C@H](CO)NC(=O)[C@H](CCCNC(=N)N)N(C)C(=O)c2ccccc2CSC(C)(C)[C@@H](C(=O)N[C@@H](Cc2c[nH]c3ccccc23)C(=O)N[C@H](CCC(=O)O)C(=O)N[C@H](CO)C(=O)N[C@H](CCCCN)C(N)=O)NC1=O` [compound 197] (HELM PEPTIDE1{[meR].S.D.T.L.[Pen].W.[dE].[dS].[dK].[am]}|CHEM1{[O=C(c1ccccc1C[*:2])[*:1]]}$PEPTIDE1,CHEM1,1:R1-1:R1|PEPTIDE1,CHEM1,6:R3-1:R2$$$V2.0), for which the IC50 was under 25 nM. With `CC(C)C[C@@H]1NC(=O)[C@H]([C@@H](C)O)NC(=O)[C@H](CC(=O)O)NC(=O)[C@H](CO)NC(=O)[C@H](CCCNC(=N)N)N(C)C(=O)c2ccccc2CSC(C)(C)[C@@H](C(=O)N[C@@H](Cc2c[nH]c3ccccc23)C(=O)N[C@H](CCC(=O)O)C(=O)N[C@H](Cc2ccccc2)C(=O)N[C@H](CCCCN)C(N)=O)NC1=O` [compound 198] (HELM PEPTIDE1{[meR].S.D.T.L.[Pen].W.[dE].[dF].[dK].[am]}|CHEM1{[O=C(c1ccccc1C[*:2])[*:1]]}$PEPTIDE1,CHEM1,1:R1-1:R1|PEPTIDE1,CHEM1,6:R3-1:R2$$$V2.0) the figure was under 25 nM; with `CC(C)C[C@@H]1NC(=O)[C@H]([C@@H](C)O)NC(=O)[C@H](CC(=O)O)NC(=O)[C@H](CO)NC(=O)[C@H](CCCNC(=N)N)N(C)C(=O)c2ccccc2CSC(C)(C)[C@@H](C(=O)N[C@@H](Cc2c[nH]c3ccccc23)C(=O)N[C@H](CCC(=O)O)C(=O)N[C@H](Cc2c[nH]cn2)C(=O)N[C@H](CCCCN)C(N)=O)NC1=O` [compound 199] (HELM PEPTIDE1{[meR].S.D.T.L.[Pen].W.[dE].[dH].[dK].[am]}|CHEM1{[O=C(c1ccccc1C[*:2])[*:1]]}$PEPTIDE1,CHEM1,1:R1-1:R1|PEPTIDE1,CHEM1,6:R3-1:R2$$$V2.0), under 25 nM; with `CC(C)C[C@@H]1NC(=O)[C@H]([C@@H](C)O)NC(=O)[C@H](CC(=O)O)NC(=O)[C@H](CO)NC(=O)[C@H](CCCNC(=N)N)N(C)C(=O)c2ccccc2CSC(C)(C)[C@@H](C(=O)N[C@@H](Cc2c[nH]c3ccccc23)C(=O)N[C@H](CCC(=O)O)C(=O)N[C@H](CCC(=O)O)C(=O)N[C@H](CCCCN)C(N)=O)NC1=O` [compound 200] (HELM PEPTIDE1{[meR].S.D.T.L.[Pen].W.[dE].[dE].[dK].[am]}|CHEM1{[O=C(c1ccccc1C[*:2])[*:1]]}$PEPTIDE1,CHEM1,1:R1-1:R1|PEPTIDE1,CHEM1,6:R3-1:R2$$$V2.0), under 25 nM.

These data come from patent US20260217767A1, “NOVEL A4B7 THIOETHER PEPTIDE DIMER ANTAGONISTS” (Protagonist Therapeutics, Inc., priority 2014, published 2026).
